US8124744B2, “Macrolide derivatives” (Taisho Pharmaceutical Co., Ltd., priority 2006, dated 2012)
≈ marks a conversion by molar mass, not a printed value.

Columns and labels:
[1] = tested on: MMP-9 production; details: background art, Non-Patent Document 3; read-out: 50% inhibitory concentration (IC50) value, MMP-9 production; cited from earlier work
[2] = tested on: pro MMP-9 protein; assay: Inhibitory activity against proMMP-9 protein production (TNF α-stimulated mouse peritoneal exudate cells, ELISA); assay type: cell-based, C57BL/6J mice; details: relative activity when the value of Comparative Agent 1 (IC50 = 10.04 ± 4.11 μM) is 10, on the increase of pro MMP-9 by TNF α 25 ng/ml, 24 hours, read-out: IC50 (μM)*
Procedure, shortened: (§1)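 Peritoneal exudate cells came from male C57BL/6J mice 3 days after i.p. zymosan A; cultured cells got compound (0.02–20 μM final) 1 h before TNFα (25 ng/ml) and supernatant pro MMP-9 was measured by ELISA after 24 h for IC50 against the TNFα-induced increase. MIC was measured against S. aureus ATCC29213.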

[3] = tested on: Staphylococcus aureus ATCC29213; assay: Minimal inhibitory concentration (MIC); assay type: cell-based
Procedure, shortened: as §1

Compound	IC50 [1] [µM]	IC50 [2] [µM]	MIC [3] [µg/mL]
CC[C@H]1OC(=O)[C@H](C)[C@@H](O[C@H]2C[C@@](C)(OC)[C@@H](O)[C@H](C)O2)[C@H](C)[C@@H](O[C@@H]2O[C@H](C)C[C@H](N(C)C)[C@H]2O)[C@](C)(O)C[C@@H](C)/C(=N\OCOCCOC)[C@H](C)[C@@H](O)[C@]1(C)O [roxithromycin]	≥ 10	–	–
CC[C@H]1OC(=O)[C@H](C)[C@@H](O[C@H]2C[C@@](C)(OC)[C@@H](O)[C@H](C)O2)[C@H](C)[C@@H](O[C@@H]2O[C@H](C)C[C@@H](N3CCOCC3)[C@@H]2N(C)C)[C@@](C)(OC)C[C@@H](C)C(=O)[C@H](C)[C@@H](O)[C@H]1C [Example 210, 3′-dedimethylamino-2′-deoxy-2′-dimethylamino-3′-(4-morpholino)-6-O-methylerythromycin B]	–	4.63	128 (≈ 160 µM)
CC[C@H]1OC(=O)[C@H](C)C(=O)[C@H](C)[C@@H](O[C@@H]2O[C@H](C)C[C@H](N(C)C)[C@H]2OC)[C@@](C)(OC)C[C@@H](C)C(=O)[C@H](C)[C@@H](O)[C@]1(C)O [Example 155, 3-deoxy-3-oxo-5-O-(2′-O-methyldesosaminyl)-6-O-methylerythronolide A]	–	9.7	> 128
CC[C@H]1OC(=O)[C@H](C)[C@@H](O[C@H]2C[C@@](C)(OC)[C@@H](O)[C@H](C)O2)[C@H](C)[C@@H](O[C@@H]2O[C@H](C)C[C@H](N(C)C)[C@H]2OCCCNS(C)(=O)=O)[C@@](C)(OC)C[C@@H](C)C(=O)[C@H](C)[C@@H](O)[C@]1(C)O [Example 117, 2′-O-(3-methanesulfonylamidepropyl)-6-O-methylerythromycin A]	–	3.55	> 128
CC[C@H]1OC(=O)[C@H](C)[C@@H](O[C@H]2C[C@@](C)(OC)[C@@H](OC(C)=O)[C@H](C)O2)[C@H](C)[C@@H](O[C@@H]2O[C@H](C)C[C@@H](NC)[C@@H]2N(C)C)[C@@](C)(OC)C[C@@H](C)C(=O)[C@H](C)[C@@H](O)[C@]1(C)O [Example 174, 4″-O-acetyl-3′-N-demethyl-2′-deoxy-2′-dimethylamino-6-O-methylerythromycin A]	–	1.7	> 128
CC[C@H]1OC(=O)[C@H](C)[C@@H](O[C@H]2C[C@@](C)(OC)[C@@H](OC(C)=O)[C@H](C)O2)[C@H](C)[C@@H](O[C@@H]2O[C@H](C)C[C@H](N(C)C)[C@H]2OCCCN2CCC(O)CC2)[C@@](C)(OC)C[C@@H](C)C(=O)[C@H](C)[C@@H](O)[C@]1(C)O [Example 122, 4″-O-acetyl-2′-O-(3-(4-hydropiperidin-1-yl)propyl)-6-O-methylerythromycin A]	–	3.06	> 128
CC[C@H]1OC(=O)[C@H](C)[C@@H](O[C@H]2C[C@@](C)(OC)[C@@H](O)[C@H](C)O2)[C@H](C)[C@@H](O[C@@H]2O[C@H](C)C[C@@H](N(C)S(C)(=O)=O)[C@@H]2N(C)C)[C@@](C)(OC)C[C@@H](C)C(=O)[C@H](C)[C@@H](O)[C@]1(C)O [Example 186, 3′-N-demethyl-2′-deoxy-2′-dimethylamino-3′-N-methanesulfonyl-6-O-methylerythromycin A]	–	4.01	> 128
CC[C@H]1OC(=O)[C@H](C)[C@@H](O[C@H]2C[C@@](C)(OC)[C@@H](OC(C)=O)[C@H](C)O2)[C@H](C)[C@@H](O[C@@H]2O[C@H](C)C[C@@H](N3CCOCC3)[C@@H]2N(C)C)[C@@](C)(OC(C)=O)C[C@@H](C)CN(C)[C@H](C)[C@@H](OC(C)=O)[C@]1(C)O [Example 212, 6,11,4″-O-triacetyl-3′-dedimethylamino-2′-deoxy-2′-dimethylamino-3′-(4-morpholino)-9-deoxo-9a-aza-9a-methyl-9a-homoerythromycin A]	–	1.78	> 128
CC[C@H]1OC(=O)[C@H](C)[C@@H](O[C@H]2C[C@@](C)(OC)[C@@H](O)[C@H](C)O2)[C@H](C)[C@@H](O[C@@H]2O[C@H](C)C[C@@H](N(C)Cc3cccnc3)[C@@H]2N(C)C)[C@@](C)(OC)C[C@@H](C)C(=O)[C@H](C)[C@@H](O)[C@]1(C)O [Example 190, 3′-N-demethyl-2′-deoxy-2′-dimethylamino-3′-N-(3-pyridylmethyl)-6-O-methylerythromycin A]	–	3.82	> 128
CC[C@H]1OC(=O)[C@H](C)[C@@H](O[C@H]2C[C@@](C)(OC)[C@@H](O)[C@H](C)O2)[C@H](C)[C@@H](O[C@@H]2O[C@H](C)C[C@H](N(C)CCCN(C)C)[C@H]2OC)[C@@](C)(OC)C[C@@H](C)C(=O)[C@H](C)[C@@H](O)[C@]1(C)O [Example 130, 3′-N-demethyl-3′-N-(3-dimethylaminopropyl)-6,2′-di-O-methylerythromycin A]	–	1.33	> 128
CC[C@H]1OC(=O)[C@H](C)[C@@H](O[C@H]2C[C@@](C)(OC)[C@@H](OC(C)=O)[C@H](C)O2)[C@H](C)[C@@H](O[C@@H]2O[C@H](C)C[C@@H](N3CCOCC3)[C@@H]2N(C)C)[C@@](C)(OC)C[C@@H](C)C(=O)[C@H](C)[C@@H](O)[C@H]1C [Example 209, 4″-O-acetyl-3′-dedimethylamino-2′-deoxy-2′-dimethylamino-3′-(4-morpholino)-6-O-methylerythromycin B]	–	3.47	> 128
CC[C@H]1OC(=O)[C@H](C)[C@@H](O[C@H]2C[C@@](C)(OC)[C@@H](OC(C)=O)[C@H](C)O2)[C@H](C)[C@@H](O[C@@H]2O[C@H](C)C[C@@H](N3CCC(O)CC3)[C@@H]2N(C)C)[C@@](C)(OC)C[C@@H](C)C(=O)[C@H](C)[C@@H](O)[C@]1(C)O [Example 164, 4″-O-acetyl-3′-dedimethylamino-2′-deoxy-2′-dimethylamino-3′-(4-hydroxypiperidin-1-yl)-6-O-methylerythromycin A]	–	2.77	> 128
CCO[C@H]1[C@H](O[C@@H]2[C@@H](C)[C@H](O[C@@H]3C[C@@](C)(OC)[C@@H](O)[C@H](C)O3)[C@@H](C)C(=O)O[C@H](CC)[C@@](C)(O)[C@H](O)[C@@H](C)C(=O)[C@H](C)C[C@]2(C)OC)O[C@H](C)C[C@@H]1N(C)C [Example 105, 2′-O-ethyl-6-O-methylerythromycin A]	–	4.38	> 128
CC[C@H]1OC(=O)[C@H](C)[C@@H](O[C@H]2C[C@@](C)(OC)[C@@H](O)[C@H](C)O2)[C@H](C)[C@@H](O[C@@H]2O[C@H](C)C[C@H](N(C)C)[C@H]2OCCCN(C)C)[C@@](C)(OC)C[C@@H](C)C(=O)[C@H](C)[C@@H](O)[C@]1(C)O [Example 115, 2′-O-(3-dimethylaminopropyl)-6-O-methylerythromycin A]	–	3.88	> 128
CC[C@H]1OC(=O)[C@H](C)[C@@H](O[C@H]2C[C@@](C)(OC)[C@@H](O)[C@H](C)O2)[C@H](C)[C@@H](O[C@@H]2O[C@H](C)C[C@H](N(C)CCCOCc3ccccc3)[C@H]2OC)[C@@](C)(OC)C[C@@H](C)C(=O)[C@H](C)[C@@H](O)[C@]1(C)O [Example 129, 3′-N-demethyl-3′-N-(3-benzyloxypropyl)-6,2′-di-O-methylerythromycin A]	–	< 1.04	> 128
CC[C@H]1OC(=O)[C@H](C)[C@@H](O[C@H]2C[C@@](C)(OC)[C@@H](O)[C@H](C)O2)[C@H](C)[C@@H](O[C@@H]2O[C@H](C)C[C@@H](N(C)Cc3ccc(N4CCOCC4)cc3)[C@@H]2N(C)C)[C@@](C)(OC)C[C@@H](C)C(=O)[C@H](C)[C@@H](O)[C@]1(C)O [Example 182, 3′-N-demethyl-2′-deoxy-2′-dimethylamino-3′-N-(4-(4-morpholino)benzyl)methyl-6-O-methylerythromycin A]	–	1.72	> 128
